Source: patent publication US8329166B2, “Pluripotent olfactory stem cells” (Academia Sinica, priority 2005, dated 2012)

System: SDF-1
Assay: Western blot of SDF-1 in hypoxia-reoxygenation treated cells pre-treated with pathway inhibitors
Format: cell-based, human
Details: pre-treatment 10 μM
Procedure: Western blot was also performed to examine the expression of SDF-1, G-CSF, CXCR4, and G-CSF-R in the above-described cells that were treated with hypoxia-reoxygenation. Briefly, cells were placed in a hypoxic chamber (Bug Box, Ruskinn Technology, UK) at 37° C. for 12 hours. The chamber was continuously flushed with 95% N2-5% CO2 to maintain a gas phase PO2 of <1 mmHg (OM-14 oxygen monitor; SensorMedics Corporation, Yorba Linda, Calif.). After each hypoxic treatment, the cells were returned to a 37° C. normoxic incubator (95% air-5% CO2) for different time durations (30 minutes, 1 hour, 4 hours, 12 hours, 24 hours, and 48 hours) of reoxygenation. Cell samples were then collected at each time point and stored at -80° C. For Western blot, the samples were lysed in a buffer containing 320 mM sucrose, 5 mM HEPES, 1 μg/ml leupeptin, 1 μg/ml aprotinin. The resulting lysate were centrifuged at 13,000 g for 15 minutes. The pellet was resuspended in a sample buffer (62.5 mM Tris-HCl, 10% glycerol, 2% SDS, 0.1% bromophenol blue, and 50 mM DTT) and subjected to SDS-polyacrylamide gel (4-12%) electrophoresis. […] The intensity of each detected band was quantified using a Kodak Digital Science 1D Image Analysis System (Eastman Kodak, Rochester, N.Y.). […]

COc1cccc(-c2cc(=O)c3ccccc3o2)c1N [PD98059]
expression of SDF-1: stayed at the control level
